In patent US12560591B2, “Methods of treatment with CD8 T cell-mediated immune therapy” (Providence Health & Services—Oregon, priority 2019, dated 2026):

Assays:
[1] = tested on: tumor infiltrating immune cells; test: FACS analysis of tumor-infiltrating immune cells after LY treatment; type: in vivo, mouse
ALK4 = molecular target: T1, ALK4 (Homo sapiens, UniProt P36896); settings: reported in Lahn et al., Drug Des. Devel. Ther. 2015; cited from earlier work
T1 sequence (P36896 24-505): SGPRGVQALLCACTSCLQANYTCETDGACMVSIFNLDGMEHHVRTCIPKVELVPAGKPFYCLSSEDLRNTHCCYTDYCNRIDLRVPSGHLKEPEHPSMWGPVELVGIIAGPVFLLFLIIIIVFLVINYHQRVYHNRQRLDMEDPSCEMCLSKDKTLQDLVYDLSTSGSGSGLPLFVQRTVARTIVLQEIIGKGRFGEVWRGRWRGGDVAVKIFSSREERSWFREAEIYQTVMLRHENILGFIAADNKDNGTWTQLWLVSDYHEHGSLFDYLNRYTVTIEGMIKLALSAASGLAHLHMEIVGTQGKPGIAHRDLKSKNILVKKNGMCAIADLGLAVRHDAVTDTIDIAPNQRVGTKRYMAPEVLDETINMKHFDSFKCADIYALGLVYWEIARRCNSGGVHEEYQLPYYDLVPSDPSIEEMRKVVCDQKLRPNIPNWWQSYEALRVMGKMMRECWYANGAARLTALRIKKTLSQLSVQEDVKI

MC38 tumors = test: MC38 tumor model in ALK5^ΔCD8 mice, survival and tumor growth; type: in vivo, mouse; settings: addition of LY2157299 in ALK5^ΔCD8 mice with MC38 tumors, FIGS. 5B and 5C
Method: FIG. 5A is a schematic showing the treatment strategy in the MC38 tumor model. C57BL/6 Wild-type (n=6-9/group) and ALK5^ΔCD8 (n=4-10/group) mice were implanted subcutaneously with MC38 tumor cells followed four days later by injection of some groups with anti-CD8a mAb to specifically deplete CD8^+ T cells. In other groups, mice also received LY2157299 via oral gavage twice daily (150 mg/kg) for seven days. Survival of mice was monitored until day 90 (FIG. 5B). […] The number of tumors cured over the total number of tumor-bearing mice is shown in the top right of each graph. Data from a representative experiment is shown reflective of two independent experiments total. ***=p<0.001.
Animal studies and cell culture: C57BL/6, BALB/c, CD8Cre, Lyz2Cre, and Foxp3-eGFP-CreERT2 mice were purchased from the Jackson Laboratories (Bar Harbor, Maine). ALK5flox/flox mice were a generous gift from Andrew Weinberg (Providence Cancer Center). All transgenic mice were on C57BL/6 background. […] Tumors were measured 3×/week until they reached the survival end-point of 144 mm^2. […] Following single cell preparation, cells were washed and resuspended in FACS buffer (1×PBS, 1% BSA, 2 mM EDTA) and counted prior to FACS staining using a Guava EasyCyte cytometer (Millipore). […]
Whether the improved survival and radiosensitivity observed in ALK5^ΔCD8 mice was dependent on CD8^+ T cells was next evaluated. […]

[2] = LY-treated vs vehicle animals, day 14, FIG. 8E

## Cc1cccc(-c2nn3c(c2-c2ccnc4ccc(C(N)=O)cc24)CCC3)n1 [LY2157299]
[1]; LY versus vehicle control treated animals, data not shown
  tumor-infiltrating effector population (tSNE of flow cytometric data): enrichment of the tumor-infiltrating effector population
[1]; [2]
  CD8^+ T cells infiltrating tumors: more CD8^+ T cells
  macrophages and Tregs infiltrating tumors: fewer macrophages and Tregs
[1]; spleens, lymph nodes and CT26 tumors of LY-treated mice, FIG. 8F
  percentage of CD8^+ T cells expressing EOMES and Tbet: increase
ALK4
  Kd for ALK4 compared with ALK5: lower Kd for ALK4 than ALK5
MC38 tumors
  survival or tumor growth kinetics: no improvement in survival or tumor growth kinetics
